The structures appear in SMILES notation.

Experiment [1] deals with MV-4-11 cells. As to the kind of experiment: In vitro cell proliferation assay (CellTiter-Glo), MV-4-11. The format is cell-based. To be noted: MV4-11, human acute leukemia cells bearing FLT3-ITD mutation, 72 h. The protocol: (§1) The human acute leukemia MOLM-13 AND MV-4-11 cells, bearing a FLT3-ITD mutation, were seeded (5000 cells/well) in white 384 well-plates in complete medium (RPMI 1640 plus 10% Fetal bovine serum) and treated with compounds dissolved in 0.1% DMSO, 24 h after seeding. The cells were incubated at 37° C. and 5% CO2 and after 72 h the plates were processed using CellTiter-Glo assay (Promega) following the manufacturer's instruction.
(§2) CellTiter-Glo is a homogenous method based on the quantification of the ATP present, an indicator of metabolitically active cells. ATP was quantified using a system based on luciferase and D-luciferin resultant into light generation. The luminescent signal was proportional to the number of cells present in culture.
(§3) Briefly, 25 microL/well reagent solution were added to each well and, after 5 minutes shaking, microplates were read by Envision (PerkinElmer) luminometer. Inhibitory activity was evaluated comparing treated versus control data using Symyx Assay Explorer (Symyx Technologies Inc.) program. IC50 was calculated using sigmoidal interpolation curve.
For orientation: Cellular ATP, detected with luciferase, serves as a proxy for viable cell number.

Experiment [2] has as its system MOLM-13 cells. As to the kind of experiment: In vitro cell proliferation assay (CellTiter-Glo), MOLM-13. The format is cell-based. To be noted: human acute leukemia cells bearing FLT3-ITD mutation, 72 h. How it is done:
as §1, §2, §3

For `CN(C)c1ccc(C(=O)Nc2n[nH]c3cc(OCc4ccccc4)ccc23)cc1` [Ref. Compound], the 50% inhibitory concentration (IC50) (commonly the point on the concentration scale where inhibition reaches its midpoint) in experiment [1] turned out to be 5.54 µM; in experiment [2] it was 3.91 µM.

These data come from US10478423B2, “Substituted indazole derivatives active as kinase inhibitiors” (NERVIANO MEDICAL SCIENCES S.R.L., priority 2011, dated 2019).
